In patent publication US20080009418A1, “Selective Inhibitors” (Alchemia LTD., priority 2004, published 2008):

Key:
Human melanocortin (MC5) = target: T1, Human melanocortin (MC5) (Homo sapiens, UniProt P33032); assay: Radioligand binding, human melanocortin MC5 membranes, FlashPlate, [125I]-NDP-αMSH; conditions: compound at 10 μM; for A5 radioligand binding inhibition: human melanocortin MC5 membranes
T1 construct: purchased Perkin Elmer Biosignal
How it was run: (§1)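 Cloned human receptor membranes were coated onto FlashPlate wells and incubated with radioligand and compound (added from a 0.5 mM DMSO daughter plate) for 1 hour at room temperature in the dark. Scintillation counting gave percent inhibition, with DMSO defining total and reference ligand defining non-specific binding.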

Human Melanocortin (MC3) = target: T2, Human Melanocortin (MC3) (Homo sapiens, UniProt P41968); assay: Radioligand binding, human melanocortin MC3 membranes, FlashPlate, [125I]-NDP-αMSH; conditions: compound at 10 μM; for A3 radioligand binding inhibition: human melanocortin MC3 membranes
T2 construct: purchased Perkin Elmer Biosignal
T2 sequence (P41968 whole entry): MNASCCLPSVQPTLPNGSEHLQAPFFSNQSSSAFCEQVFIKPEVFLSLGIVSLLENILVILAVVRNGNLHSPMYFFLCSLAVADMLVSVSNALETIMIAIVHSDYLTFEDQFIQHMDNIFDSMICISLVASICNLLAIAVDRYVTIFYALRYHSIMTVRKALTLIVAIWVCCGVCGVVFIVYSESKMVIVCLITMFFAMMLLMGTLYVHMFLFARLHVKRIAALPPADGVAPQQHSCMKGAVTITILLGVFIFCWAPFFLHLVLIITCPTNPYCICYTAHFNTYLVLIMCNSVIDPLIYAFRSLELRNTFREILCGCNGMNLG
How it was run: as §1

[1] = target: T3, Human melanin-concentrating hormone (MCH1) (Homo sapiens, UniProt Q99705); assay: Radioligand binding, human melanin-concentrating hormone MCH1 membranes, FlashPlate, [125I]-S36057; conditions: compound at 10 μM; for A6 radioligand binding inhibition: human MCH1 membranes
T3 construct: purchased Perkin Elmer Biosignal
T3 sequence (Q99705 whole entry): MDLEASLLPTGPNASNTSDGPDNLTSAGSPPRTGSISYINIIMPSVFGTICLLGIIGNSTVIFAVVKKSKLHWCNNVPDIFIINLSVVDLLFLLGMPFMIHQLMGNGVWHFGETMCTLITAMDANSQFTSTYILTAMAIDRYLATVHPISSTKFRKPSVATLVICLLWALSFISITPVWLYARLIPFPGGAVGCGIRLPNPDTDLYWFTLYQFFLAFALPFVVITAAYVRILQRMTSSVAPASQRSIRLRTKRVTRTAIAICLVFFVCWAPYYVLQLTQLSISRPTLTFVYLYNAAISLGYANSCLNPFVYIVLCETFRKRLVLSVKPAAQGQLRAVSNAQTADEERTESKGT
How it was run: as §1

Human κ-Opioid (KOP) = target: T4, Human κ-Opioid (KOP) (Homo sapiens, UniProt P41145); assay: Radioligand binding, human κ-opioid (KOP) membranes, filtration, [3H]-Diprenorphine; conditions: compound at 10 μM; for A2 radioligand binding inhibition: human κ-opioid (KOP) membranes
T4 construct: purchased Perkin Elmer Biosignal
T4 sequence (P41145 whole entry): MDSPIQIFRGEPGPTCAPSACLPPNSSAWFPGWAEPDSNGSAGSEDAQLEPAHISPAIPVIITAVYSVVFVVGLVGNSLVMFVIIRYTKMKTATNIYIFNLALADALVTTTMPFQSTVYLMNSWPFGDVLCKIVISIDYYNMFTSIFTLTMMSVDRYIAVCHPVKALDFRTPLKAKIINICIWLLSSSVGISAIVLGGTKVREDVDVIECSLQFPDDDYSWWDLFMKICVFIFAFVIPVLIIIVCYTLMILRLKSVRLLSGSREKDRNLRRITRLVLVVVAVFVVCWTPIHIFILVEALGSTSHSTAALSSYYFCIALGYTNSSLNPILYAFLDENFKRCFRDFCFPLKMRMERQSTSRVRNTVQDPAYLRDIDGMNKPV
How it was run: (§2)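 Percent inhibition of radioligand binding measured on recombinant human membranes: NK1 with [125I]-Substance P, KOP with [3H]-Diprenorphine. Incubation 1 h at room temperature, then harvest onto 0.3% PEI-soaked filters, cold Tris-HCl pH 7.4 washes and scintillation counting; non-specific binding from reference ligand wells.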

[2] = target: T5, Human neuropeptide Y (NPY-Y1) (Homo sapiens, UniProt P25929); assay: Radioligand binding, human neuropeptide Y NPY-Y1 membranes, FlashPlate, [125I]-PYY; conditions: compound at 10 μM; for A9 radioligand binding inhibition: human NPY-Y1 membranes
T5 construct: purchased Perkin Elmer Biosignal
T5 sequence (P25929 1-384): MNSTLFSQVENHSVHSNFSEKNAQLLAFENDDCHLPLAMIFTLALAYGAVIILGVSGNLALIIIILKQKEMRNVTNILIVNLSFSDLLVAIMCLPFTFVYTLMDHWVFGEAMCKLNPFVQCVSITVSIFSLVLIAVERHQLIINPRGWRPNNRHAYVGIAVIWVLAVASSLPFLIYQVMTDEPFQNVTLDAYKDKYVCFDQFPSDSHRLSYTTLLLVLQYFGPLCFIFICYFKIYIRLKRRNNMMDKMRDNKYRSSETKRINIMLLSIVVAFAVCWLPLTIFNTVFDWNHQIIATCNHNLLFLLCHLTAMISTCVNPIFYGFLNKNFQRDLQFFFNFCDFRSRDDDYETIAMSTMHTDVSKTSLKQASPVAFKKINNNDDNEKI
How it was run: as §1

Human neurokinin (NK1) = target: T6, Human neurokinin (NK1) (Homo sapiens, UniProt P25103); assay: Radioligand binding, human neurokinin NK1 membranes, filtration, [125I]-Substance P; conditions: compound at 10 μM; for A8 radioligand binding inhibition: human neurokinin NK1 membranes
T6 construct: purchased Perkin Elmer Biosignal
T6 sequence (P25103 whole entry): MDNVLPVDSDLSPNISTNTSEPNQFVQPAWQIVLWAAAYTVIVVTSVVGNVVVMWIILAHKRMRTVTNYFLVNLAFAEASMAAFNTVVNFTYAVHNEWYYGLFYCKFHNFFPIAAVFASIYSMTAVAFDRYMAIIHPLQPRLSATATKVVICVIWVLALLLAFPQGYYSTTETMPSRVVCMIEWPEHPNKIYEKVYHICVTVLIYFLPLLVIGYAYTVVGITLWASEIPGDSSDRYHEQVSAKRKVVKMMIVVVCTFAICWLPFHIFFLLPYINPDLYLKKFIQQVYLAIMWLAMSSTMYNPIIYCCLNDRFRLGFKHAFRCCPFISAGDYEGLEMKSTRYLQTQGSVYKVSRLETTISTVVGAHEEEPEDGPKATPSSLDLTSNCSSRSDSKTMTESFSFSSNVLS
How it was run: as §2

Human μ-opioid (MOP) = target: T7, Human μ-opioid (MOP) (Homo sapiens, UniProt P35372); assay: Radioligand binding, human μ-opioid (MOP) membranes, FlashPlate, [3H]-Naloxone; conditions: compound at 10 μM; for A7 radioligand binding inhibition: human μ-opioid (MOP) membranes
T7 construct: purchased Perkin Elmer Biosignal
T7 sequence (P35372 whole entry): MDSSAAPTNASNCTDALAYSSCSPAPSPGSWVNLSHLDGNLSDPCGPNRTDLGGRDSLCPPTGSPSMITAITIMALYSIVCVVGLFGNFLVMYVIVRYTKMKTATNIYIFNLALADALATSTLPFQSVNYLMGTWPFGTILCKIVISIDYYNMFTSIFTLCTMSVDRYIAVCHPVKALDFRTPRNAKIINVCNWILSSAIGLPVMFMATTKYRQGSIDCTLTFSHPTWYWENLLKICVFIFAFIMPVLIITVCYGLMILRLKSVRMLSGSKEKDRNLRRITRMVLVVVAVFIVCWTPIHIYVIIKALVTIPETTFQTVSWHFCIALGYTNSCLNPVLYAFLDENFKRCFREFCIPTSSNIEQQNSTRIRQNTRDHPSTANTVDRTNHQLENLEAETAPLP
How it was run: as §1

Mouse urotensin (mUR2) = target: T8, Mouse urotensin (mUR2) (Mus musculus, UniProt Q8VIH9); assay: Radioligand binding, mouse urotensin mUR2 membranes, FlashPlate, [125I]-Urotensin II; conditions: compound at 10 μM; for A11 radioligand binding inhibition: mouse urotensin mUR2 membranes
T8 construct: purchased Perkin Elmer Biosignal
T8 sequence (Q8VIH9 1-385): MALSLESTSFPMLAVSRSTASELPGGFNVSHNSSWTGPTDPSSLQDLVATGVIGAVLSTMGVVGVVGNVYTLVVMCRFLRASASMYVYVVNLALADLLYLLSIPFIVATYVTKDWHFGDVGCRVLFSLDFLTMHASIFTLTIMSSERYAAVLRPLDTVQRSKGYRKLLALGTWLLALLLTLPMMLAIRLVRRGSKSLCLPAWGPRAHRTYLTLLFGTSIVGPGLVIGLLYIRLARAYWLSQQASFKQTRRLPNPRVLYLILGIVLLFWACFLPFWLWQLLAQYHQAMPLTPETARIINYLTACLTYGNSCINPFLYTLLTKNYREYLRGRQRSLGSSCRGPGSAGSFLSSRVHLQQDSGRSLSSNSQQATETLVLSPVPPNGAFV
How it was run: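 Cloned mouse urotensin (mUR2) receptor membranes from Perkin Elmer Biosignal were immobilized in FlashPlate microplates using a proprietary coating. Each well got 19.5 μl buffer, then 0.5 μl of DMSO, reference ligand, or compound. Adding 5 μl of [125I]-Urotensin II, diluted to 5× final concentration in binding buffer, started binding. Plates were sealed with TopSeal-A and incubated 1 hour at room temperature in the dark. Wells were counted for 30 seconds each on a TopCount after a 60-second delay, and percentage inhibition was calculated.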

Human Melanocortin (MC4) = target: T9, Human Melanocortin (MC4) (Homo sapiens, UniProt P32245); assay: Radioligand binding, human melanocortin MC4 membranes, FlashPlate, [125I]-NDP-αMSH; conditions: compound at 10 μM; for A4 radioligand binding inhibition: human melanocortin MC4 membranes
T9 construct: purchased Perkin Elmer Biosignal
T9 sequence (P32245 whole entry): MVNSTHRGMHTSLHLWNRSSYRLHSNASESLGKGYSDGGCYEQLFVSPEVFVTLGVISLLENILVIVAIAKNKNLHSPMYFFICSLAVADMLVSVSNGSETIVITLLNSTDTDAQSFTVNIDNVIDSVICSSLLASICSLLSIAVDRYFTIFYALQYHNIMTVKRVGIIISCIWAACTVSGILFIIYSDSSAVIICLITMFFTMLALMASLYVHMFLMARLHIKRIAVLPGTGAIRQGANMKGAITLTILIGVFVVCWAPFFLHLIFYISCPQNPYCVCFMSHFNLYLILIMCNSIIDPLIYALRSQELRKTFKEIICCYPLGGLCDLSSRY
How it was run: as §1

Human δ-opioid (DOP) = target: T10, Human δ-opioid (DOP) (Homo sapiens, UniProt P41143); assay: Radioligand binding, human δ-opioid (DOP) membranes, FlashPlate, [3H]-Bremazocine; conditions: compound at 10 μM; for A1 radioligand binding inhibition: human δ-opioid (DOP) membranes
T10 construct: purchased Perkin Elmer Biosignal
T10 sequence (P41143 whole entry): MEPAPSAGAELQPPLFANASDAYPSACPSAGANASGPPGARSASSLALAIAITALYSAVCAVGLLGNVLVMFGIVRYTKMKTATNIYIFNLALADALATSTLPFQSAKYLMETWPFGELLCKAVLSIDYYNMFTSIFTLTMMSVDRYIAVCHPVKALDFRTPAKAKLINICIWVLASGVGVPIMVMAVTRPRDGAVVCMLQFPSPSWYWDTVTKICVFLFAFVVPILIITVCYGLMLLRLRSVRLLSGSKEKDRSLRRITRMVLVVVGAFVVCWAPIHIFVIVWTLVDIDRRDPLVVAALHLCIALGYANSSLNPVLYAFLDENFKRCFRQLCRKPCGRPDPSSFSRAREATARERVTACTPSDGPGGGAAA
How it was run: as §1

Human opioid (ORL1) = target: T11, Human opioid (ORL1) (Homo sapiens, UniProt P41146); assay: Radioligand binding, human opioid ORL1 membranes, FlashPlate, [125I]-Nociceptin; conditions: compound at 10 μM; for A10 radioligand binding inhibition: human ORL1 membranes
T11 construct: purchased Perkin Elmer Biosignal
T11 sequence (P41146 whole entry): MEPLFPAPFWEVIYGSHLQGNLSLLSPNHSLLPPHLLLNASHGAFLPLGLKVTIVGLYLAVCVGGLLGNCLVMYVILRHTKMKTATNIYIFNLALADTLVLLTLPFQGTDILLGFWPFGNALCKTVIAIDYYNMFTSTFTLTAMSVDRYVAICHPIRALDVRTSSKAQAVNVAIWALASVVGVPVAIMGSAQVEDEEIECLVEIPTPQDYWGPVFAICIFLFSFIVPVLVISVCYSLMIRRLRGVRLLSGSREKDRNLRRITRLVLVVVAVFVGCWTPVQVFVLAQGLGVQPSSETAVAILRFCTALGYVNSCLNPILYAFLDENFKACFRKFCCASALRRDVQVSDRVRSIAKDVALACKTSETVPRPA
How it was run: as §1

T1 sequence (P33032 whole entry): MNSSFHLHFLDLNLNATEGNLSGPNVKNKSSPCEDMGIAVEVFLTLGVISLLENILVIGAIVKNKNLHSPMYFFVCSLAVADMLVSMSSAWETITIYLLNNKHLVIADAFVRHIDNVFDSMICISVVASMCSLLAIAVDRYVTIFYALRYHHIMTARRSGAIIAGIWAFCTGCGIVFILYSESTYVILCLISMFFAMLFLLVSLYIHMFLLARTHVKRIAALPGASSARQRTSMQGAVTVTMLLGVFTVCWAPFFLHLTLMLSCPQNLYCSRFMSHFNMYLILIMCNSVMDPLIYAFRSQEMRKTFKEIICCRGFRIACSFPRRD

## COCC1OC(OCc2ccc(Cl)cc2)C(NC(=O)CCCNC(=N)N)C(OCc2ccc(Cl)cc2)C1O (stereo not shown) [compound 204]
Human melanocortin (MC5); [125I]-NDP-αMSH, FlashPlate
  A5: inhibition of radioligand binding: + (“+” indicates greater than 50% inhibition at 10 μM)
Human Melanocortin (MC3); [125I]-NDP-αMSH, FlashPlate
  A3: inhibition of radioligand binding: + (“+” indicates greater than 50% inhibition at 10 μM)
[1]; [125I]-S36057, FlashPlate
  A6: inhibition of radioligand binding: + (“+” indicates greater than 50% inhibition at 10 μM)
Human κ-Opioid (KOP); [3H]-Diprenorphine, filtration
  A2: inhibition of radioligand binding: − (“−” indicates less than 50% inhibition at 10 μM)
[2]; [125I]-PYY, FlashPlate
  A9: inhibition of radioligand binding: − (“−” indicates less than 50% inhibition at 10 μM)
Human neurokinin (NK1); [125I]-Substance P, filtration
  A8: inhibition of radioligand binding: + (“+” indicates greater than 50% inhibition at 10 μM)
Human μ-opioid (MOP); [3H]-Naloxone, FlashPlate
  A7: inhibition of radioligand binding: − (“−” indicates less than 50% inhibition at 10 μM)
Mouse urotensin (mUR2); [125I]-Urotensin II, FlashPlate
  A11: inhibition of radioligand binding: − (“−” indicates less than 50% inhibition at 10 μM)
Human Melanocortin (MC4); [125I]-NDP-αMSH, FlashPlate
  A4: inhibition of radioligand binding: + (“+” indicates greater than 50% inhibition at 10 μM)
Human δ-opioid (DOP); [3H]-Bremazocine, FlashPlate
  A1: inhibition of radioligand binding: − (“−” indicates less than 50% inhibition at 10 μM)
Human opioid (ORL1); [125I]-Nociceptin, FlashPlate
  A10: inhibition of radioligand binding: − (“−” indicates less than 50% inhibition at 10 μM)

## COC[C@H]1OC(OCc2ccc(-c3ccccc3)cc2)[C@H](NC(=O)CCCN)[C@@H](OCc2ccc(-c3ccccc3)cc2)[C@@H]1O (stereo partly shown) [compound 2]
Human melanocortin (MC5)
  A5 radioligand binding inhibition: + (“+” indicates greater than 50% inhibition at 10 μM)
Human Melanocortin (MC3)
  A3 radioligand binding inhibition: − (“−” indicates less than 50% inhibition at 10 μM)
[1]
  A6 radioligand binding inhibition: + (“+” indicates greater than 50% inhibition at 10 μM)
Human κ-Opioid (KOP)
  A2 radioligand binding inhibition: − (“−” indicates less than 50% inhibition at 10 μM)
[2]
  A9 radioligand binding inhibition: − (“−” indicates less than 50% inhibition at 10 μM)
Human neurokinin (NK1)
  A8 radioligand binding inhibition: + (“+” indicates greater than 50% inhibition at 10 μM)
Human μ-opioid (MOP)
  A7 radioligand binding inhibition: − (“−” indicates less than 50% inhibition at 10 μM)
Mouse urotensin (mUR2)
  A11 radioligand binding inhibition: − (“−” indicates less than 50% inhibition at 10 μM)
Human Melanocortin (MC4)
  A4 radioligand binding inhibition: + (“+” indicates greater than 50% inhibition at 10 μM)
Human δ-opioid (DOP)
  A1 radioligand binding inhibition: − (“−” indicates less than 50% inhibition at 10 μM)
Human opioid (ORL1)
  A10 radioligand binding inhibition: − (“−” indicates less than 50% inhibition at 10 μM)

## COC[C@H]1OC(OCc2ccc3ccccc3c2)[C@H](NC(=O)CNC(=N)N)[C@@H](OCc2ccc3ccccc3c2)[C@@H]1O (stereo partly shown) [compound 17]
Human melanocortin (MC5)
  A5 radioligand binding inhibition: + (“+” indicates greater than 50% inhibition at 10 μM)
Human Melanocortin (MC3)
  A3 radioligand binding inhibition: − (“−” indicates less than 50% inhibition at 10 μM)
[1]
  A6 radioligand binding inhibition: + (“+” indicates greater than 50% inhibition at 10 μM)
Human κ-Opioid (KOP)
  A2 radioligand binding inhibition: − (“−” indicates less than 50% inhibition at 10 μM)
[2]
  A9 radioligand binding inhibition: − (“−” indicates less than 50% inhibition at 10 μM)
Human neurokinin (NK1)
  A8 radioligand binding inhibition: + (“+” indicates greater than 50% inhibition at 10 μM)
Human μ-opioid (MOP)
  A7 radioligand binding inhibition: + (“+” indicates greater than 50% inhibition at 10 μM)
Mouse urotensin (mUR2)
  A11 radioligand binding inhibition: − (“−” indicates less than 50% inhibition at 10 μM)
Human Melanocortin (MC4)
  A4 radioligand binding inhibition: + (“+” indicates greater than 50% inhibition at 10 μM)
Human δ-opioid (DOP)
  A1 radioligand binding inhibition: − (“−” indicates less than 50% inhibition at 10 μM)
Human opioid (ORL1)
  A10 radioligand binding inhibition: − (“−” indicates less than 50% inhibition at 10 μM)

## COC[C@H]1OC(OCc2ccc3ccccc3c2)[C@H](NC(=O)CNC(=N)N)[C@@H](OCc2cccc(O)c2)[C@@H]1O (stereo partly shown) [compound 133]
Human melanocortin (MC5); [125I]-NDP-αMSH
  A5 radioligand binding, percentage inhibition: − (“−” indicates less than 50% inhibition at 10 μM)
Human Melanocortin (MC3); [125I]-NDP-αMSH
  A3 radioligand binding, percentage inhibition: − (“−” indicates less than 50% inhibition at 10 μM)
[1]; [125I]-S36057
  A6 radioligand binding, percentage inhibition: − (“−” indicates less than 50% inhibition at 10 μM)
Human κ-Opioid (KOP); [3H]-Diprenorphine
  A2 radioligand binding, percentage inhibition: − (“−” indicates less than 50% inhibition at 10 μM)
[2]; [125I]-PYY
  A9 radioligand binding, percentage inhibition: − (“−” indicates less than 50% inhibition at 10 μM)
Human neurokinin (NK1); [125I]-Substance P
  A8 radioligand binding, percentage inhibition: − (“−” indicates less than 50% inhibition at 10 μM)
Human μ-opioid (MOP); [3H]-Naloxone
  A7 radioligand binding, percentage inhibition: + (“+” indicates greater than 50% inhibition at 10 μM)
Mouse urotensin (mUR2); [125I]-Urotensin II
  A11 radioligand binding, percentage inhibition: − (“−” indicates less than 50% inhibition at 10 μM)
Human Melanocortin (MC4); [125I]-NDP-αMSH
  A4 radioligand binding, percentage inhibition: − (“−” indicates less than 50% inhibition at 10 μM)
Human δ-opioid (DOP); [3H]-Bremazocine
  A1 radioligand binding, percentage inhibition: − (“−” indicates less than 50% inhibition at 10 μM)
Human opioid (ORL1); [125I]-Nociceptin
  A10 radioligand binding, percentage inhibition: − (“−” indicates less than 50% inhibition at 10 μM)

## N=C(N)NCCC(=O)N[C@H]1C(OCc2ccc(Cl)cc2)O[C@H](COCc2ccc3ccccc3c2)[C@@H](O)[C@@H]1OCc1ccc(-c2ccccc2)cc1 (stereo partly shown) [compound 534]
Human melanocortin (MC5); [125I]-NDP-αMSH
  A5: inhibition of radioligand binding, human melanocortin (MC5): + (“+” indicates greater than 50% inhibition at 10 μM)
Human Melanocortin (MC3); [125I]-NDP-αMSH
  A3: inhibition of radioligand binding, human melanocortin (MC3): + (“+” indicates greater than 50% inhibition at 10 μM)
[1]; [125I]-S36057
  A6: inhibition of radioligand binding, human melanin-concentrating hormone (MCH1): + (“+” indicates greater than 50% inhibition at 10 μM)
Human κ-Opioid (KOP); [3H]-Diprenorphine
  A2: inhibition of radioligand binding, human κ-opioid (KOP): − (“−” indicates less than 50% inhibition at 10 μM)
[2]; [125I]-PYY
  A9: inhibition of radioligand binding, human neuropeptide Y (NPY-Y1): − (“−” indicates less than 50% inhibition at 10 μM)
Human neurokinin (NK1); [125I]-Substance P
  A8: inhibition of radioligand binding, human neurokinin (NK1): + (“+” indicates greater than 50% inhibition at 10 μM)
Human μ-opioid (MOP); [3H]-Naloxone
  A7: inhibition of radioligand binding, human μ-opioid (MOP): − (“−” indicates less than 50% inhibition at 10 μM)
Mouse urotensin (mUR2); [125I]-Urotensin II
  A11: inhibition of radioligand binding, mouse urotensin (mUR2): − (“−” indicates less than 50% inhibition at 10 μM)
Human Melanocortin (MC4); [125I]-NDP-αMSH
  A4: inhibition of radioligand binding, human melanocortin (MC4): + (“+” indicates greater than 50% inhibition at 10 μM)
Human δ-opioid (DOP); [3H]-Bremazocine
  A1: inhibition of radioligand binding, human δ-opioid (DOP): − (“−” indicates less than 50% inhibition at 10 μM)
Human opioid (ORL1); [125I]-Nociceptin
  A10: inhibition of radioligand binding, human opioid (ORL1): − (“−” indicates less than 50% inhibition at 10 μM)
